# Patent US7425563B2, “4-(Substituted aryl)-5-hydroxyisoquinolinone derivative” (Kyorin Pharmaceutical Co., Ltd., priority 2002, dated 2008)
# Biological target: T1, PARP (Homo sapiens, UniProt P09874)
# T1 construct: purchased Trevigen 4667-050-01
# Test: Inhibitory experiment against PARP activity
# Assay type: biochemical
# Details: PARP (Trevigen), [14C]NAD, activated DNA, 25° C., 10 minutes; concentration decreasing enzyme activity to 50%
# Method: After mixing well, the contents were warmed to 25° C. in a water bath. After 10 minutes, the reaction was stopped by adding 1 mL of ice-cold 20% trichloroacetic acid and the test tube was left on ice. The precipitates were collected on a glass fiber filter by suction filtration and washed 5 times with 5% trichloroacetic acid. The radioactivity on the filter was measured with liquid scintillation counter.
# T1 sequence (P09874 whole entry): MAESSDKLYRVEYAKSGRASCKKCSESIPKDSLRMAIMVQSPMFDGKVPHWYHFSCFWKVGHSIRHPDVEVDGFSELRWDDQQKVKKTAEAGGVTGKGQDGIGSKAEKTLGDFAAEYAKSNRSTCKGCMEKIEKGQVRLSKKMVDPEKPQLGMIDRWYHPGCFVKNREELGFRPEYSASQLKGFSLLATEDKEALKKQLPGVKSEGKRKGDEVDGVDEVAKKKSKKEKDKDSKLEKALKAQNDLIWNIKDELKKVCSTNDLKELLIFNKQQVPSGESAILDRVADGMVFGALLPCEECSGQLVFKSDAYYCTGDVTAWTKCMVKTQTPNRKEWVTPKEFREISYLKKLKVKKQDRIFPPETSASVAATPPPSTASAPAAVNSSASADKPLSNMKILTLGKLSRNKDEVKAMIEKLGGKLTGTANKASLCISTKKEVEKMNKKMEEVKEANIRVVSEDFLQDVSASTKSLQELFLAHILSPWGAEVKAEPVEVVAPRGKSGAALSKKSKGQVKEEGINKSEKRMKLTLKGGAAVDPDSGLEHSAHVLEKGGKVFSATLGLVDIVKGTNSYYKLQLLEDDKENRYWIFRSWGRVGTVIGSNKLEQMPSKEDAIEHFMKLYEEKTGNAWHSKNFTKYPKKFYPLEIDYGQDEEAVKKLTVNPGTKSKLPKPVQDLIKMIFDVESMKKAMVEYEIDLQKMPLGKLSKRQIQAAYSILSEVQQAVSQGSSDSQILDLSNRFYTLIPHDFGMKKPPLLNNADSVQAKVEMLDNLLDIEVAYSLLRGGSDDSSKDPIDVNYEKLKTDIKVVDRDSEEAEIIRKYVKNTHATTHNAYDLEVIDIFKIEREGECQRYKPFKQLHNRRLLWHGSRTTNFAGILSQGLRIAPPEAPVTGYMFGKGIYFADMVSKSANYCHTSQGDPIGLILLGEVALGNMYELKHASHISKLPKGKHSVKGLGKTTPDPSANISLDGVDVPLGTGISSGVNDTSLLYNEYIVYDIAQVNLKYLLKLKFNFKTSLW
row,Structure (SMILES),IC50 [nM]
1,CN(Cc1ccc(-c2c[nH]c(=O)c3cccc(O)c23)cc1)CC1CCCCC1 [Example 23],126
2,CN(CCc1ccccc1)Cc1ccc(-c2c[nH]c(=O)c3cccc(O)c23)cc1 [Example 19],41
3,"O=c1[nH]cc(-c2ccc(CN3CC=C(c4ccccc4)CC3)cc2)c2c(O)cccc12 [Example 61, 1,2-Dihydro-5-hydroxy-1-oxo-4-[4-[(4-phenyl-1,2,3,6-tetrahydropyridine-1-yl)methyl]phenyl]isoquinoline]",20
4,O=c1[nH]cc(-c2ccc(CN3CCCC3)cc2)c2c(O)cccc12 [Example 32],33
5,CN(Cc1ccccc1)Cc1ccc(-c2c[nH]c(=O)c3cccc(O)c23)cc1 [Example 12],54
6,CN(CCCc1ccccc1)Cc1ccc(-c2c[nH]c(=O)c3cccc(O)c23)cc1 [Example 21],47
